Legend:
Adenosine receptor A2b = target: T1, Adenosine receptor A2b (Homo sapiens, UniProt P29275); assay: Displacement [3H]DPCPX from human adenosine A2B receptor expressed in HEK293 cell membranes incubated for 60 mins by scintillation counting method
T1 sequence (P29275 whole entry): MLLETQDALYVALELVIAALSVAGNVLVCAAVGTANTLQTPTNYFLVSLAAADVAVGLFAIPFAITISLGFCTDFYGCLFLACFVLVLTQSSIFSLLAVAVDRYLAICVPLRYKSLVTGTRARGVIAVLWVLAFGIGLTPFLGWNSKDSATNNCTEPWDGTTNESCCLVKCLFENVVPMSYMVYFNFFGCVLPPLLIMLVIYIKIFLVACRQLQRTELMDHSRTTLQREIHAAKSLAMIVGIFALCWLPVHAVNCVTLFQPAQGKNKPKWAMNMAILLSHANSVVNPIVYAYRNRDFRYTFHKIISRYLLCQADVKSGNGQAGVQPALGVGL

Cytochrome P450 3A4 = Cytochrome P450 3A4 (Homo sapiens, UniProt P08684); assay: Inhibition of CYP3A4 (unknown origin) expressed in insect cell microsomes using dibenzylfluorescein substrate by fluorescence based assay; type: ADME
CYP2D6 [1] = target: T2, CYP2D6 (Homo sapiens, UniProt P10635); assay: Inhibition of CYP2D6 (unknown origin) expressed in insect cell microsomes at 10 uM using dibenzylfluorescein substrate by fluorescence based assay relative to control; type: ADME; settings: insect cell microsomes expressing CYP2D6, probe dibenzylfluorescein
[2] = target: T3, Adenosine receptor A1 (Homo sapiens) (UniProt P30542); assay: Displacement [3H]DPCPX from human adenosine A1 receptor expressed in CHO cell membranes at 1 uM incubated for 60 mins by scintillation counting method relative to control
T3 sequence (whole entry): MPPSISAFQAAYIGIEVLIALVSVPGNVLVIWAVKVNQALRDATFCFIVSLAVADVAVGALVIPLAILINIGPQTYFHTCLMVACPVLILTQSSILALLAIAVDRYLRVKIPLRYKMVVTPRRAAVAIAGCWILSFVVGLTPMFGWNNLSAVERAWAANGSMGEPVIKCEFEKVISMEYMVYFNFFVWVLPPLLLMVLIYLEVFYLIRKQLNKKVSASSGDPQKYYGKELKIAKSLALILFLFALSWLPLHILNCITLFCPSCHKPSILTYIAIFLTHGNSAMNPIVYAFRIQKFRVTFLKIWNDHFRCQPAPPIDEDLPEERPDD

[3] = target: T4, Adenosine receptor A3 (Homo sapiens) (UniProt P0DMS8); assay: Displacement [3H]NECA from adenosine A3 receptor in human HeLa cell membranes at 1 uM incubated for 180 mins by scintillation counting method relative to control
T4 sequence (whole entry): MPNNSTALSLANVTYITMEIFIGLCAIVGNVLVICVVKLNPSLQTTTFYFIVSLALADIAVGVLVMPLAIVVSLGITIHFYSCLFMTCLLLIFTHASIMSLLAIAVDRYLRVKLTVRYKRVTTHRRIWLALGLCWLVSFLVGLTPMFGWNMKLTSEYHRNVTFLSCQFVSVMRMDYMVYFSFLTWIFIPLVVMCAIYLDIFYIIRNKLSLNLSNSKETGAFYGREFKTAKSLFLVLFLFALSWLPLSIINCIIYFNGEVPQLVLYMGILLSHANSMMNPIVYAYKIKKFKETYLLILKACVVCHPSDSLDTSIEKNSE

Adenosine receptor A2a = Adenosine receptor A2a (Homo sapiens, UniProt P29274); assay: Displacement [3H]ZM241385 from adenosine A2A receptor in human HeLa cell membranes incubated for 30 mins by scintillation counting method
CYP2D6 [4] = target: T2, CYP2D6; assay: Inhibition of CYP2D6 (unknown origin) expressed in insect cell microsomes at 1 uM using dibenzylfluorescein substrate by fluorescence based assay relative to control; type: ADME; settings: insect cell microsomes expressing CYP2D6, probe dibenzylfluorescein
[5] = Solubility in pH 7 PBS incubated for 4 hrs by nephelometry; type: physicochemical
[6] = Drug metabolism in human liver microsomes after 60 mins in presence of NADP,glucose-6-phosphate and glucose-6-phosphate dehydrogenase by UPLC-MS/MS analysis; type: ADME, Microsome; settings: read-out: Drug metabolism
Adenosine receptor A1 = target: T5, Adenosine receptor A1 (Homo sapiens, UniProt P30542); assay: Displacement [3H]DPCPX from human adenosine A1 receptor expressed in CHO cell membranes incubated for 60 mins by scintillation counting method
T5 sequence (P30542 whole entry): T3 sequence (whole entry)

Adenosine receptor A3 = target: T6, Adenosine receptor A3 (Homo sapiens, UniProt P0DMS8); assay: Displacement [3H]NECA from adenosine A3 receptor in human HeLa cell membranes incubated for 180 mins by scintillation counting method
T6 sequence (P0DMS8 whole entry): T4 sequence (whole entry)

T2 sequence (P10635 whole entry): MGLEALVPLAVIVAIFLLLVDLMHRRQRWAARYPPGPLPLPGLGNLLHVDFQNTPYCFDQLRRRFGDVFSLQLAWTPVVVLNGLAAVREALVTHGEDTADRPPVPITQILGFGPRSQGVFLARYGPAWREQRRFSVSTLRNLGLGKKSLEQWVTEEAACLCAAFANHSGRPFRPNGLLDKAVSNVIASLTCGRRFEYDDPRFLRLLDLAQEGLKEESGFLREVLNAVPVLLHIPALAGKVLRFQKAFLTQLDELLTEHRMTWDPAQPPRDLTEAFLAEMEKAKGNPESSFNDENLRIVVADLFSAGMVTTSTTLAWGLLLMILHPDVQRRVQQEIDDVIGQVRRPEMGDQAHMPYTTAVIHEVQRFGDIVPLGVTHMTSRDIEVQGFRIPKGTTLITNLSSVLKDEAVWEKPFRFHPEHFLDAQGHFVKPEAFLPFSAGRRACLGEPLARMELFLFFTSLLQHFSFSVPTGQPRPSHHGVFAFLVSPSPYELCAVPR
Sequence of Cytochrome P450 3A4 (P08684 whole entry): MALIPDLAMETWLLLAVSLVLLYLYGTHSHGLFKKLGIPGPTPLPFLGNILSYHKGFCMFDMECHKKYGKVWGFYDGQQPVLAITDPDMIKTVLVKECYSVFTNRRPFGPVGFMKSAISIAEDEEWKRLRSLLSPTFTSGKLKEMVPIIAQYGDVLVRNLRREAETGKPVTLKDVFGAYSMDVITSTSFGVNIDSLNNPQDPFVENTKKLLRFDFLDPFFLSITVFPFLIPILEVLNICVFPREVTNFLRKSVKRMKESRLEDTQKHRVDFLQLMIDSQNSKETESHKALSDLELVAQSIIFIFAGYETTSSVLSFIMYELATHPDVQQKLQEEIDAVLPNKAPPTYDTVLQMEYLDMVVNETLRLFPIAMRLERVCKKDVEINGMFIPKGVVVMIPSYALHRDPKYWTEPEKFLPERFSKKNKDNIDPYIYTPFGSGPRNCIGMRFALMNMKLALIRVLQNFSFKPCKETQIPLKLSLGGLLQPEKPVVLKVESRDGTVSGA
Sequence of Adenosine receptor A2a (P29274 whole entry): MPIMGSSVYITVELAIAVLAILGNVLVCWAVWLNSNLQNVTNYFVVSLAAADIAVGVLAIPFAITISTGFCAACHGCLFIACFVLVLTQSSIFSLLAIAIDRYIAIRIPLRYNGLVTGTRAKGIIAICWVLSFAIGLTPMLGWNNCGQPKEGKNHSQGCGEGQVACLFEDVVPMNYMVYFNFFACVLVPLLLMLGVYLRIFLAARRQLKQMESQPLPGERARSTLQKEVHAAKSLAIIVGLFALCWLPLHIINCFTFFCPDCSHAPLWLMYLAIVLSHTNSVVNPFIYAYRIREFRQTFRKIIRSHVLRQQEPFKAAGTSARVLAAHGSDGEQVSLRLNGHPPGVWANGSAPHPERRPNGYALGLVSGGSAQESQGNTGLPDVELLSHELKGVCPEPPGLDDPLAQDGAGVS

Row | Ki (Adenosine receptor A2b) [nM] | IC50 (Cytochrome P450 3A4) [nM] | inhibition at 10 µM (CYP2D6 [1]) [%] | inhibition [2] [%] | inhibition [3] [%] | Ki (Adenosine receptor A2a) [nM] | inhibition at 1 µM (CYP2D6 [4]) [%] | solubility kinetic at 4 h [5] [µM] | metabolised at 1 h [6] [%] | Ki (Adenosine receptor A1) [nM] | Ki (Adenosine receptor A3) [nM] | Structure (SMILES)
1 | 402 | 4540 | 18 | 6 | 1 | 5 | 8 |  |  |  |  | CCOC(=O)C1=C(C)Nc2nc3ccccc3n2C1c1ncc[nH]1 (racemic)
2 |  | 6410 | 19 |  |  |  | 13 | > 20 | 5.62 |  |  | CCOC(=O)C1=C(C)Nc2nc3ccccc3n2C1c1cocn1 (racemic)
3 | 508 |  |  |  |  | 282 |  |  |  | 233 | 418 | CCOC(=O)C1=C(C)Nc2nc3ccccc3n2C1c1cnco1 (racemic)
